Where two headings read alike, the source gives them in different places.
Assays:
[1] = tested on: N87 (gastric cancer) cells; test: In vitro cell assay (MTS cell viability), N87; type: cell-based; conditions: free compounds, 96 hours after treatment
Experimental: (§1) In Vitro Cell Assay Procedure
(§2) Target expressing (BT474 (breast cancer), N87 (gastric cancer), HCC1954 (breast cancer), MDA-MB-361-DYT2 (breast cancer)) or non-expressing (HT-29) cells were seeded in 96-well cell culture plates for 24 hours before treatment. Cells were treated with 3-fold serially diluted antibody-drug conjugates or free compounds (i. e. no antibody conjugated to the drug) in duplicate at 10 concentrations. Cell viability was determined by CellTiter 96® AQueous One Solution Cell Proliferation MTS Assay (Promega, Madison Wis.) 96 hours after treatment. Relative cell viability was determined as percentage of untreated control. IC50 values were calculated using a four parameter logistic model #203 with XLfit v4. 2 (IDBS, Guildford, Surry, UK).

[2] = tested on: MDA-MB-361-DYT2 (breast cancer) cells; test: In vitro cell assay (MTS cell viability), MDA-MB-361-DYT2; type: cell-based; conditions: free compounds, 96 hours after treatment
Experimental: as §1, §2

[3] = molecular target: T1, tubulin/RB3-stathmin-like-domain (RB3-SLD-tdm) complex (Sus scrofa, UniProt P02550+P02554); test: Tubulin Peptide-Binding Site Competition Assay (fluorescence polarization); design: species or system Porcine; conditions: FP competition with BODIPY-labeled vinca peptide probe; read after five hours at 22° C.; read-out: Tubulin Peptide-Binding Site Competition Assay IC50
T1 construct: purchased Cytoskeleton, Inc. T240; host or cells: RB3-SLD was made in house in E. coli
Method in brief: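 The BODIPY vinca-peptide probe was premixed with test compound and then added to porcine tubulin/RB3-SLD, at final concentrations of 3 nM probe, 6 nM tubulin and 100 nM RB3-SLD. The buffer was PIPES pH 7.0 with Tween 20, MgCl2 and EGTA, and 11-point dilutions were run in duplicate. IC50 was fitted from the fluorescence polarization decrease and converted to Ki.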

HT-29 cells = test: In vitro cell assay (MTS cell viability), HT-29 (target non-expressing); type: cell-based; conditions: free compounds, 96 hours after treatment, read-out: HT29 IC50
Experimental: as §1, §2

| SMILES | IC50 ([1]; 96 h) | IC50 ([2]; 96 h) | IC50 [3] | IC50 (HT-29 cells; Homo sapiens, HT-29, 96 h) | IC50 [1] | IC50 [2] | IC50 (HT-29 cells) |
| --- | --- | --- | --- | --- | --- | --- | --- |
| CC[C@H](C)[C@H](NC(=O)[C@@]1(C)CCCN1C)C(=O)N(C)[C@H](C[C@@H](O)c1nc(C(=O)N[C@@H](Cc2ccc(N)cc2)C[C@H](C)C(=O)O)cs1)C(C)C [#B32, 1,2-dimethyl-D-prolyl-N-[(1R,3R)-1-(4-{[(2R,4S)-1-(4-aminophenyl)-4-carboxypentan-2-yl]carbamoyl}-1,3-thiazol-2-yl)-1-hydroxy-4-methylpentan-3-yl]-N-methyl-L-isoleucinamide] | > 100 nM | > 100 nM | 12.3 nM | > 100 nM |  |  |  |
| CCNC(=O)O[C@H](C[C@H](C(C)C)N(C)C(=O)[C@@H](NC(=O)C12CCC(CC1)N2C)[C@@H](C)CC)c1nc(C(=O)N[C@@H](Cc2ccc(N)cc2)C[C@H](C)C(=O)O)cs1 [#B26, (2S,4R)-5-(4-aminophenyl)-4-{[(2-[(6R,8R,11S)-11-[(2S)-butan-2-yl]-9-methyl-13-(7-methyl-7-azabicyclo[2.2.1]hept-1-yl)-4,10,13-trioxo-8-(propan-2-yl)-5-oxa-3,9,12-triazatridecan-6-yl]-1,3-thiazol-4-yl}carbonyl)amino]-2-methylpentanoic acid] | 7.78 nM | 8.27 nM | < 0.5 nM | 8.83 nM |  |  |  |
| CC[C@H](C)[C@H](NC(=O)[C@@]1(C)CCCN1C)C(=O)N(C)[C@H](C[C@@H](OC(C)=O)c1nc(C(=O)N[C@@H](Cc2ccccc2)C(O)c2nccs2)cs1)C(C)C (stereo partly drawn) [#B62, 1,2-dimethyl-D-prolyl-N-[(1R,3R)-1-(acetyloxy)-1-(4-{[(2S)-1-hydroxy-3-phenyl-1-(1,3-thiazol-2-yl)propan-2-yl]carbamoyl}-1,3-thiazol-2-yl)-4-methylpentan-3-yl]-N-methyl-L-isoleucinamide] | 10.4 nM | 2.65 nM | 4.7 nM | 2.26 nM |  |  |  |
| CC[C@H](C)[C@H](NC(=O)C12CC(CCN1C)C2)C(=O)N(C)[C@H](C[C@@H](OC(C)=O)c1nc(C(=O)N[C@@H](Cc2ccccc2)C[C@H](C)C(=O)OC)cs1)C(C)C [#B14, methyl (2S,4R)-4-[({2-[(1R,3R)-1-(acetyloxy)-4-methyl-3-(methyl{N-[(2-methyl-2-azabicyclo[3.1.1]hept-1-yl)carbonyl]-L-isoleucyl}amino)pentyl]-1,3-thiazol-4-yl}carbonyl)amino]-2-methyl-5-phenylpentanoate] | 0.337 nM | 0.017 nM | 11.5 nM | 0.063 nM |  |  |  |
| CCNC(=O)O[C@H](C[C@H](C(C)C)N(C)C(=O)[C@@H](NC(=O)C12CCCC(CCC1)N2C)[C@@H](C)CC)c1nc(C(=O)N[C@@H](Cc2ccc(N)cc2)C[C@H](C)C(=O)O)cs1 [#B27, (2S,4R)-5-(4-aminophenyl)-4-{[(2-{(1R,3R)-1-[(ethylcarbamoyl)oxy]-4-methyl-3-(methyl{N-[(9-methyl-9-azabicyclo[3.3.1]non-1-yl)carbonyl]-L-isoleucyl}amino)pentyl]-1,3-thiazol-4-yl}carbonyl)amino]-2-methylpentanoic acid] | 6.42 nM | 5.46 nM | < 0.648 nM | 5.39 nM |  |  |  |
| CC[C@H](C)[C@H](NC(=O)[C@@]1(C)CCCN1C)C(=O)N(C)[C@H](C[C@@H](OC(C)=O)c1nc(C(=O)NCC2(c3ccccc3)CC2)cs1)C(C)C [#B53, 1,2-dimethyl-D-prolyl-N-[(1R,3R)-1-(acetyloxy)-4-methyl-1-(4-{[(1-phenylcyclopropyl)methyl]carbamoyl}-1,3-thiazol-2-yl}pentan-3-yl]-N-methyl-L-isoleucinamide] | 52.4 nM | 34 nM | 12.9 nM | 45.1 nM |  |  |  |
| CC[C@H](C)[C@H](NC(=O)[C@@]1(C)CCCN1C)C(=O)N(C)[C@H](C[C@@H](OC(C)=O)c1nc(C(=O)NCCc2cscn2)cs1)C(C)C [#B76, 1,2-dimethyl-D-prolyl-N-[(1R,3R)-1-(acetyloxy)-4-methyl-1-(4-{[2-(1,3-thiazol-4-yl)ethyl]carbamoyl}-1,3-thiazol-2-yl)pentan-3-yl]-N-methyl-L-isoleucinamide] | 87.7 nM | 42 nM | 19.9 nM | 37.4 nM |  |  |  |
| CCNC(=O)O[C@H](C[C@H](C(C)C)N(C)C(=O)[C@@H](NC(=O)[C@@]1(C)CCCN1C)[C@@H](C)CC)c1nc(C(=O)N[C@H](C(=O)OC)C(C)O)cs1 (stereo partly drawn) [#B22, 1,2-dimethyl-D-prolyl-N-{(1R,3R)-1-[(ethylcarbamoyl)oxy]-1-(4-{[(2S)-3-hydroxy-1-methoxy-1-oxobutan-2-yl]carbamoyl}-1,3-thiazol-2-yl)-4-methylpentan-3-yl]-N-methyl-L-isoleucinamide] | 12.1 nM | 11.2 nM |  | 14.4 nM |  |  |  |
| CC[C@H](C)[C@H](NC(=O)[C@@]1(C)CCCN1C)C(=O)N(C)[C@H](C[C@H](O)c1nc(C(=O)N[C@@H](Cc2ccc(N)cc2)C[C@H](C)C(=O)O)cs1)C(C)C [#B33, 1,2-dimethyl-D-prolyl-N-{(1S,3R)-1-(4-{[(2R,4S)-1-(4-aminophenyl)-4-carboxypentan-2-yl]carbamoyl}-1,3-thiazol-2-yl)-1-hydroxy-4-methylpentan-3-yl]-N-methyl-L-isoleucinamide] | > 1000 nM | > 1000 nM |  | > 1000 nM |  |  |  |
| CC[C@H](C)[C@H](NC(=O)[C@@]1(C)CCCN1C)C(=O)N(C)[C@H](C[C@@H](NC(C)=O)c1nc(C(=O)N[C@@H](Cc2ccc(N)cc2)C[C@H](C)C(=O)O)cs1)C(C)C [#B28, 1,2-dimethyl-D-prolyl-N-[(1R,3R)-1-(acetylamino)-1-(4-{[(2R,4S)-1-(4-aminophenyl)-4-carboxypentan-2-yl]carbamoyl}-1,3-thiazol-2-yl)-4-methylpentan-3-yl]-N-methyl-L-isoleucinamide] | > 100 nM | 81.5 nM |  | 74.9 nM |  |  |  |
| CCNC(=O)N[C@H](C[C@H](C(C)C)N(C)C(=O)[C@@H](NC(=O)[C@@]1(C)CCCN1C)[C@@H](C)CC)c1nc(C(=O)N[C@@H](Cc2ccc(N)cc2)C[C@H](C)C(=O)O)cs1 [#B29, 1,2-dimethyl-D-prolyl-N-{(1R,3R)-1-(4-{[(2R,4S)-1-(4-aminophenyl)-4-carboxypentan-2-yl]carbamoyl}-1,3-thiazol-2-yl)-1-[(ethylcarbamoyl)amino]-4-methylpentan-3-yl}-N-methyl-L-isoleucinamide] | 28.6 nM | 24.9 nM |  | 24.5 nM |  |  |  |
| CCNC(=O)O[C@H](C[C@H](C(C)C)N(C)C(=O)[C@@H](NC(=O)[C@]1(C)CCCCN1C)[C@@H](C)CC)c1nc(C(=O)N[C@@H](Cc2ccc(N)cc2)C[C@H](C)C(=O)O)cs1 [#B25, (2S,4R)-5-(4-aminophenyl)-4-{[(2-{(1R,3R)-3-[(N-{[(2S)-1,2-dimethylpiperidin-2-yl]carbonyl}-L-isoleucyl)(methyl)amino]-1-[(ethylcarbamoyl)oxy]-4-methylpentyl}-1,3-thiazol-4-yl)carbonyl]amino}-2-methylpentanoic acid] |  |  |  |  | 6.3 nM | 4.62 nM | 5.9 nM |
| CCOC(=O)[C@@H](C)C[C@H](Cc1ccccc1)NC(=O)c1csc([C@@H](C[C@H](C(C)C)N(C)C(=O)[C@@H](NC(=O)[C@@]2(C)CCCN2C)[C@@H](C)CC)NC(C)=O)n1 [#B18, 1,2-dimethyl-D-prolyl-N-[(1R,3R)-1-(acetylamino)-1-(4-{[(2R,4S)-5-ethoxy-4-methyl-5-oxo-1-phenylpentan-2-yl]carbamoyl}-1,3-thiazol-2-yl)-4-methylpentan-3-yl]-N-methyl-L-isoleucinamide] | > 100 nM | > 100 nM |  | > 100 nM |  |  |  |
| CCOP(=O)(OCC)[C@@H](C)C[C@H](Cc1ccc(N)cc1)NC(=O)c1csc([C@@H](C[C@H](C(C)C)N(C)C(=O)[C@@H](NC(=O)[C@H]2CCCCN2C)[C@@H](C)CC)OC(C)=O)n1 [#B11, (1R,3R)-1-(4-{[(2S,4S)-1-(4-aminophenyl)-4-(diethoxyphosphoryl)pentan-2-yl]carbamoyl}-1,3-thiazol-2-yl)-4-methyl-3-[methyl(N-{[(2R)-1-methylpiperidin-2-yl]carbonyl}-L-isoleucyl)amino]pentyl Acetate] | 0.909 nM | 0.609 nM |  | 0.954 nM |  |  |  |
| CC[C@H](C)[C@H](NC(=O)[C@@]1(C)CCCN1C)C(=O)N(C)[C@H](C[C@@H](NC(C)=O)c1nc(C(=O)N[C@@H](Cc2ccccc2)C[C@H](C)C(=O)O)cs1)C(C)C [#B19, 1,2-dimethyl-D-prolyl-N-[(1R,3R)-1-(acetylamino)-1-(4-{[(2R,4S)-4-carboxy-1-phenylpentan-2-yl]carbamoyl}-1,3-thiazol-2-yl)-4-methylpentan-3-yl]-N-methyl-L-isoleucinamide] | 37.7 nM | 17.4 nM |  | 14.6 nM |  |  |  |
